The values below come from patent publication US7842805B2, “Pharmaceutical compounds as activators of caspases and inducers of apoptosis and the use thereof” (Myrexis, Inc., priority 2005, dated 2010).

As usually defined, the EC50 is the midpoint of the concentration-response curve. By GI50 is commonly meant the concentration that inhibits growth by half. Higher therefore signals less potent growth inhibition.

Assay [1] relates to T-47D. The experiment in a line: Caspase cascade activation assay (Ac-DEVD-R110 fluorogenic substrate). In kind it is cell-based, Human. The conditions noted are these: T-47D (24 hr); for EC50: Homo sapiens, T47D, read-out: Caspase potency EC50; for Caspase activity (Ratio): ratio of net RFU of test compound to control. The procedure:
Human breast cancer cell lines T-47D and DLD-1 were grown according to media component mixtures designated by American Type Culture Collection+10% FCS (Invitrogen Corporation), in a 5% CO2-95% humidity incubator at 37° C. T-47D and DLD-1 cells were maintained at a cell density between 50 and 80% confluency at a cell density of 0.1 to 0.6×10^6 cells/mL. Cells were harvested at 600×g and resuspended at 0.65×10^6 cells/mL into appropriate media+10% FCS. An aliquot of 22.5 μL of cells was added to a well of a 384-well microtiter plate containing 2.5 μL of a 10% DMSO in RPMI-1640 media solution containing 0.16 to 100 μM of benzo[d][1,2,3]triazin-4-yl-(4-methoxyphenyl)-methyl-amine or other test compound (0.016 to 10 μM final). An aliquot of 22.5 μL of cells was added to a well of a 384-well microtiter plate containing 2.5 μL of a 10% DMSO in RPMI-1640 media solution without test compound as the control sample. […] After incubation, the samples were removed from the incubator and 25 μL of a solution containing 14 μM of N—(Ac-DEVD)-N′-ethoxycarbonyl-R110 fluorogenic substrate (Cytovia, Inc.; WO99/18856), 20% sucrose (Sigma), 20 mM DTT (Sigma), 200 mM NaCl (Sigma), 40 mM Na PIPES buffer pH 7.2 (Sigma), and 500 μg/mL lysolecithin (Calbiochem) was added. The samples were mixed by agitation and incubated at room temperature. Using a fluorescent plate reader (Model SPECTRAfluor Plus, Tecan), an initial reading (T=0) was made approximately 1-2 min after addition of the substrate solution, employing excitation at 485 nm and emission at 530 nm, to determine the background fluorescence of the control sample. After the 3 h incubation, the samples were read for fluorescence as above (T=3 h).
The Relative Fluorescence Unit values (RFU) were used to calculate the sample readings as follows: RFU(T=3h)−Control RFU(T=0)=Net RFU(T=3h)
The activity of caspase cascade activation was determined by the ratio of the net RFU value for benzo[d][1,2,3]triazin-4-yl-(4-methoxy-phenyl)-methyl-amine or other test compounds to that of control samples. The EC50 (nM) was determined by a sigmoidal dose-response calculation (Prism 3.0, GraphPad Software Inc.).

The subject of a further assay is H1299. Put plainly: Inhibition of cell proliferation (GI50, CellTiter-Glo). In kind it is cell-based. Conditions: Homo sapiens, NCI-H1299; H1299 cells, 48 h. The protocol:
(§1) T-47D, HT29, H1299, MX-1 and MDAMB435 cells were grown and harvested as in Example 29. An aliquot of […] of cells (4.4×10^4 cells/mL) was added to a well of a 96-well microtiter plate containing 5 μL of a 10% DMSO in RPMI-1640 media solution containing 10 nM to 100 μM of benzo[d][1,2,3]triazin-4-yl-(4-methoxy-phenyl)methyl-amine (1 nM to 10 μM final). An aliquot of 45 μL of cells was added to a well of a 96-well microtiter plate containing 5 μL of a 10% DMSO in RPMI-1640 media solution without compound as the control sample for maximal cell proliferation (LMax). The samples were mixed by agitation and then incubated at 37° C. for 48 h in a 5% CO2-95% humidity incubator. After incubation, the samples were removed from the incubator and 25 μL of CellTiter-Glo™ reagent (Promega) was added. The samples were mixed by agitation and incubated at room temperature for 10-15 min. Plates were then read using a luminescent plate reader (Model SPECTRAfluor Plus, Tecan) to give Ltest values.
(§2) Baseline for GI50 (dose for 50% inhibition of cell proliferation) of initial cell numbers was determined by adding an aliquot of 45 μL of cells or 45 μL of media, respectively, to wells of a 96-well microtiter plate containing 5 μL of a 10% DMSO in RPMI-1640 media solution. The samples were mixed by agitation and then incubated at 37° C. for 0.5 h in a 5% CO2-95% humidity incubator. After incubation, the samples were removed from the incubator and 25 μL of CellTiter-Glo™ reagent (Promega) was added. The samples were mixed by agitation and incubated at 37° C. for 10-15 min at room temperature in a 5% CO2-95% humidity incubator. Fluorescence was read as above, (Lstart) defining luminescence for initial cell number used as baseline in GI50 determinations.
(§3) GI50 (dose for 50% inhibition of cell proliferation) is the concentration where [(LTest−Lstart)/(LMax−Lstart)]=0.5.
For orientation: Cellular ATP, detected with luciferase, serves as a proxy for viable cell number.

The next assay relates to HT29. Described as above. In kind it is cell-based. The conditions noted are these: Homo sapiens, HT-29; HT29 cells, 48 h. The protocol: as §1, §2, §3
The next assay relates to MDAMB435. Described as above. In kind it is cell-based. The conditions noted are these: Homo sapiens, MDA-MB-435; MDAMB435 cells, 48 h. The protocol:
as §1, §2, §3

The next assay deals with MX-1. The description is as above. Conditions: Homo sapiens, MX1; MX-1 cells, 48 h. It counts as cell-based. The procedure:
as §1, §2, §3

In assay [2] the test system is T-47D. Described as above. The conditions noted are these: Homo sapiens, T47D; T-47D cells, 48 h. In kind it is cell-based. The procedure:
as §1, §2, §3

Take `COc1ccc(N(C)c2nncc3ccccc23)cc1` [Example 2, (4-Methoxy-phenyl)-methyl-phthalazin-1-yl-amine]: the EC50 with T-47D [1] worked out at 106 nM. In the assay with T-47D [1], the “Caspase activity (Ratio)” value is recorded as 11.1. Also, the GI50 in the assay on H1299 is 106 nM; in the assay with HT29, 200 nM; with MDAMB435 it was 62 nM; in the assay with MX-1, 52 nM; in the assay on T-47D [2] it was 120 nM.
Regarding `COc1ccc(N(C)c2nnnc3ccccc23)cc1` [Example 1, Benzo[d][1,2,3]triazin-4-yl-(4-methoxy-phenyl)-methyl-amine], in the assay with T-47D [1], the EC50 stood at 16 nM. For the same compound, the “Caspase activity (Ratio)” value with T-47D [1] amounted to 9.3. The GI50 with H1299 was determined as 40 nM; with HT29, 50 nM; in the assay on MDAMB435, 7 nM; with MX-1 it was 50 nM; in the assay on T-47D [2] it was 50 nM.
